Test results taken from patent US3958014A, “Process for preparing injection-purpose fluorocarbon emulsion capable of carrying oxygen” (The Green Cross Corporation, priority 1970, dated 1976).

What was measured:
[1] = system: laboratory animal; experiment: toxicity on injection of fluorocarbon emulsion into veins; type: in vivo, laboratory animals; conditions: emulsion injected into the veins
Description: (§1) The present invention is specific in a number of aspects both as to the nature of materials used and the particle sizes and the like, of the resulting emulsion. These parameters were not arrived at casually but rather were determined through a systematic course of investigations which are discussed below. Parameters not expressly discussed below will be apparent to the skilled worker and appropriate conditions will be appreciated. Fluorocarbon - The sole fluorocarbons applicable to the present invention are perfluorodecalin or perfluoromethyldecalin or their mixture. A surfactant or emulsifying agent is also used and surfactant capable of emulsifying and stabilizing these fluorocarbons is egg yolk lecithin and preferably in an amount of from about 3 W/V % to 5 W/V % based on emulsion. There are a number of good reasons for the specificity of the fluorocarbon compounds that are useful.

[2] = accumulation of intravenously injected fluorocarbon in liver and spleen; type: in vivo, laboratory animals; conditions: for fluorocarbon administered remaining in the organs (liver and spleen): 8 weeks from administration
Description: as §1
On the other hand when an emulsion of perfluorodecalin and perfluoromethyldecalin is injected into the veins, of laboratory animals their accumulated in the animal's liver and spleen is very small. For example, perfluorodecalin is as low as zero % and perfluoromethyldecalin is 1.5% even after 8 weeks.

Row | accumulation in the animal's liver and spleen ([2]; in vivo, iv) | Molecule | toxicity [1] | accumulation in the animal's liver and spleen ([2]; i.v. emulsion) | fluorocarbon administered remaining in the organs (liver and spleen) ([2]; i.v. emulsion) | lung hazard [1]
1 |  | FC(F)(F)C(F)(F)C(F)(F)C(F)(F)N(C(F)(F)C(F)(F)C(F)(F)C(F)(F)F)C(F)(F)C(F)(F)C(F)(F)C(F)(F)F [FC-43, perfluorotributylamine] | the toxicity resulting from the accumulation appears | most of these fluorocarbons are accumulated in the animal's liver and spleen | up to 40% | 
2 |  | FC(F)(F)C(F)(F)C(F)(F)C(F)(F)C1(F)OC(F)(F)C(F)(F)C1(F)F (centres unmarked) [FX-80, perfluorobutyltetrahydrofuran] | its toxicity is quite high |  |  | a remarkable lung hazard appears
3 |  | FC(OC(F)(F)C(F)(OC(F)(F)C(F)(OC(F)(F)C(F)(OC(F)(F)C(F)(F)C(F)(F)F)C(F)(F)F)C(F)(F)F)C(F)(F)F)C(F)(F)F (centres unmarked) [Freon E4, 2-monohydro-nonacosafluoro3,6,9,12-tetraoxa-5,8,11-trimethylpentadecane] | the toxicity resulting from the accumulation appears | most of these fluorocarbons are accumulated in the animal's liver and spleen | up to 40% | 
4 | very small | FC1(F)C(F)(F)C(F)(F)C2(F)C(F)(F)C(F)(F)C(F)(F)C(F)(F)C2(F)C1(F)F (centres unmarked) [perfluorodecalin] |  |  |  | 
5 |  | perfluoromethyldecalin |  | very small | 1.5% | 
